Test [1] has as its target Protein cereblon/Peptidyl-prolyl cis-trans isomerase FKBP1A (Homo sapiens, UniProt P62942+Q96SW2). In words: Protac activity at CRBN/FKBP12 in human Jurkat cells. Format: cell-based.
The target of another test is Protein cereblon-NS3 (Hepacivirus hominis, UniProt A3EZJ3+Q96SW2). The experiment in a line: Protac activity at CRBN/NS3 in human Huh7.5 cells. The test is classed as cell-based.

In test [1], `COC1C(=O)[C@H](C)C[C@H](C)/C=C/C=C/C=C(\C)[C@@H](OC)C[C@@H]2CC[C@@H](C)[C@@](O)(O2)C(=O)C(=O)N2CCCC[C@H]2C(=O)O[C@H]([C@H](C)C[C@@H]2CC[C@@H](OCCOCc3cn(CCOCCOCCNc4cccc5c4C(=O)N(C4CCC(=O)NC4=O)C5=O)nn3)[C@H](OC)C2)CC(=O)[C@H](C)/C=C(\C)[C@H]1O` (some centres not stated) returned a DC50 of 0.3 nM.
One may read the IC50 as the concentration that gives 50% inhibition. Higher therefore signals weaker potency in that assay. In turn, `CCC[C@H](NC(=O)[C@@H]1[C@H]2CCC[C@H]2CN1C(=O)[C@@H](NC(=O)C(NC(=O)c1cnc(C(=O)NCCOCCOCCOc2cc3c4c(cccc4c2)C(=O)N(C2CCC(=O)NC2=O)C3=O)cn1)C1CCCCC1)C(C)(C)C)C(=O)C(=O)NC1CC1` (some centres not stated) came in with an IC50 at Protein cereblon-NS3 of 748 nM.
